PubChem BioAssay AID2060501 (Molecular Pharmacology Branch, DTP, NCI, 2025)

Tested on: 282377-053-R-J1-PDC complex spheroids, viability
Test: Anticancer human tumor 282377-053-R-J1-PDC patient-derived colon adenocarcinoma cell line growth inhibition [GQUAD]
Conditions: for IC50: curve of first compound; for viability, T/C: stronger effect = lower value
From the text: DNA G-quadruplex Stabilizer Agents in Combinations in Complex Spheroids
A high-throughput screen of multi-cell type tumor spheroids was designed to identify active combinations of DNA G-quadruplex stabilizer agents and targeted small molecules. Complex spheroids include a stromal component modeled by human endothelial cells (HUVEC) and fibroblasts modeled by human mesenchymal stem cells (MSCs). The concentration ranges selected for each drug and investigational agent were based upon clinically achievable concentrations if the clinical Cmax of the agent was known.
Compounds. The drugs and investigational agents: pidnarulex (CX-5461; NSC782164), APTO-253 (NSC789042), BRACO-19 (NSC847499), peposertib (NSC802822), ceralasertib (NSC780249), elimusertib (NSC800525), camonsertib (NSC841442), AZD-1390 (NSC803789), olaparib (NSC753686), talazoparib (NSC767125), ART-558 (NSC835418), sotorasib (NSC818433), MRTX-1133 (NSC836407), SN-38 (NSC673596), topotecan (NSC609699), etoposide (NSC141540), doxorubicin (NSC123127), gemcitabine (NSC613327), 5-fluorouracil (NSC19893), paclitaxel (NSC125973), vemurafenib (NSC761431), panobinostat (NSC761190), R-306465 (JNJ-16241199; NSC773264), adavosertib (NSC754352), TP-3654 (NSC805149), carboplatin (NSC241240), KSQ-4279 (NSC840948), and staurosporine (NSC755774) were obtained from the National Cancer Institute (NCI) Developmental Therapeutics Program Chemical Repository (34). The FDA-approved anticancer drug set is available from the NCI Developmental Therapeutics Program. […] The stock solutions were prepared in dimethyl sulfoxide (DMSO, Sigma-Aldrich, St. Louis, MO, cat. D2650) at 800-fold the tested concentration and stored at -70 degrees C prior to their use. All drugs and investigational agents were tested over a range starting from a high concentration at or near the clinical Cmax and decreasing in half-log increments. If the clinical Cmax for an agent had not been determined, the highest concentration tested was 10 microM.
2.3 Cell Culture. All cells were maintained in an incubator at 37 degrees C and 5% CO2 with 95% humidity. The PDC lines were cultured according to standard operating procedures established by the NCI PDMR. All PDCs were thawed and cultured in Matrigel-coated flasks prepared with a working solution of 1X Ham's F-12 nutrient mix, without supplementation (Invitrogen, cat. 11765054), 100 U/mL penicillin-streptomycin (Invitrogen, cat. 15140122), and 2.5% Matrigel (Corning Inc., cat. 354248) for the first three passages. The 857933-349-R-J2-PDC line was cultured in 6C/Colon 1B media, which includes advanced DMEM/F-12 (Thermo Fisher Scientific, cat. 12634028), 10 mM HEPES (Thermo Fisher Scientific, cat. 15630080), 1X GlutaMAX supplement (Thermo Fisher Scientific, cat. 35050061), 0.1 mg/mL primocin (InvivoGen, cat. ant-pm-2), 10% defined fetal bovine serum, heat inactivated (HyClone Laboratories Inc., cat. SH30070.03HI), 50% L-WRN conditioned media (ATCC, cat. CRL-3276), 1.25 mM N-Acetyl-L-cysteine (Sigma-Aldrich, cat. A9165), 10 mM nicotinamide (Sigma-Aldrich, cat. N0636), 1X B-27 supplement (Thermo Fisher Scientific, cat. 17504044), 1X N-2 supplement (Thermo Fisher Scientific, cat. 17502048), 10 microM Y-27632 dihydrochloride (Tocris Bioscience, cat. 1254), and 50 ng/mL human EGF recombinant protein (Thermo Fisher Scientific, cat. PHG0311). The 485176-168-R4-J1-PDC line was cultured in Panc media, which includes all 6C/Colon 1B media components plus 100 ng/mL human FGF-10 (Thermo Fisher Scientific, cat. 100-26), 500 nM SB-431542 (Selleckchem, cat. S1067), and gastrin (Tocris, cat. 3006).
[…]

[1] = second compound 0.0316 µM, first compound 0.0316 µM
[2] = second compound 0.0316 µM, first compound 0.1 µM
[3] = second compound 0.0316 µM, first compound 0.316 µM
[4] = second compound 0.0316 µM, first compound 1 µM
[5] = second compound 0.0316 µM, first compound 3.16 µM
[6] = second compound 0.0316 µM, first compound 10 µM
[7] = second compound 0.1 µM, first compound 0.0316 µM
[8] = second compound 0.1 µM, first compound 0.1 µM
[9] = second compound 0.1 µM, first compound 0.316 µM
[10] = second compound 0.1 µM, first compound 1 µM
[11] = second compound 0.1 µM, first compound 3.16 µM
[12] = second compound 0.1 µM, first compound 10 µM
[13] = second compound 0.316 µM, first compound 0.0316 µM
[14] = second compound 0.316 µM, first compound 0.1 µM
[15] = second compound 0.316 µM, first compound 0.316 µM
[16] = second compound 0.316 µM, first compound 1 µM
[17] = second compound 0.316 µM, first compound 3.16 µM
[18] = second compound 0.316 µM, first compound 10 µM
[19] = second compound 1 µM, first compound 0.0316 µM
[20] = second compound 1 µM, first compound 0.1 µM
[21] = second compound 1 µM, first compound 0.316 µM
[22] = second compound 1 µM, first compound 1 µM
[23] = second compound 1 µM, first compound 3.16 µM
[24] = second compound 1 µM, first compound 10 µM
[25] = second compound 3.16 µM, first compound 0.0316 µM
[26] = second compound 3.16 µM, first compound 0.1 µM
[27] = second compound 3.16 µM, first compound 0.316 µM
[28] = second compound 3.16 µM, first compound 1 µM
[29] = second compound 3.16 µM, first compound 3.16 µM
[30] = second compound 3.16 µM, first compound 10 µM
[31] = second compound 10 µM, first compound 0.0316 µM
[32] = second compound 10 µM, first compound 0.1 µM
[33] = second compound 10 µM, first compound 0.316 µM
[34] = second compound 10 µM, first compound 1 µM
[35] = second compound 10 µM, first compound 3.16 µM
[36] = second compound 10 µM, first compound 10 µM
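Also: spheroids exposed to compounds for 7 days before readout.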
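For viability, T/C in this document: percent of vehicle DMSO control viability with 100% = untreated-like growth.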

`O=C(NO)c1cnc(N2CCN(S(=O)(=O)c3ccc4ccccc4c3)CC2)nc1` + CN(C)c1ccc(Nc2c3ccc(NC(=O)CCN4CCCC4)cc3nc3cc(NC(=O)CCN4CCCC4)ccc23)cc1 gave an IC50 (second compound 0.0316 µM) of 518 nM, an IC50 (second compound 0.1 µM) of 512 nM and an IC50 (second compound 0.316 µM) of 536 nM. The IC50 (second compound 1 µM) was 508 nM, the IC50 (second compound 3.16 µM) was 578 nM and the IC50 (second compound 10 µM) was 464 nM. The viability, T/C [1] was 107%, the viability, T/C [2] was 128% and the viability, T/C [3] was 86.8%. It also gave a viability, T/C [4] of 2.18%, a viability, T/C [5] of 0.16% and a viability, T/C [6] of 0.17%. For the same compound, the viability, T/C [7] was 110%, the viability, T/C [8] was 93.4% and the viability, T/C [9] was 83.6%. The viability, T/C [10] was 3.12%, the viability, T/C [11] was 0.11% and the viability, T/C [12] was 0.12%. It also gave a viability, T/C [13] of 111%, a viability, T/C [14] of 101% and a viability, T/C [15] of 90.6%. The viability, T/C [16] was 2.03%, the viability, T/C [17] was 0.1% and the viability, T/C [18] was 0.11%. It also gave a viability, T/C [19] of 103%, a viability, T/C [20] of 120% and a viability, T/C [21] of 84%. For the same compound, the viability, T/C [22] was 2.22%, the viability, T/C [23] was 0.08% and the viability, T/C [24] was 0.11%. The viability, T/C [25] was 113%, the viability, T/C [26] was 92.1% and the viability, T/C [27] was 106%. It also gave a viability, T/C [28] of 1.28%, a viability, T/C [29] of 0.14% and a viability, T/C [30] of 0.13%. The viability, T/C [31] was 93%, the viability, T/C [32] was 87.8% and the viability, T/C [33] was 73.1%. The viability, T/C [34] was 3.72%, the viability, T/C [35] was 0.18% and the viability, T/C [36] was 0.17%.
With `C=CC(=O)N1CCN(c2nc(=O)n(-c3c(C)ccnc3C(C)C)c3nc(-c4c(O)cccc4F)c(F)cc23)C(C)C1` (centres undefined) + Cc1[nH]c2ccc(F)cc2c1-c1nc2c3cccnc3c3ncccc3c2[nH]1 the IC50 (second compound 0.0316 µM) was > 10000 nM, the IC50 (second compound 0.1 µM) was > 10000 nM and the IC50 (second compound 0.316 µM) was > 10000 nM. For the same compound, the IC50 (second compound 1 µM) was > 10000 nM, the IC50 (second compound 3.16 µM) was 9670 nM and the IC50 (second compound 10 µM) was < 31.6 nM. It also gave a viability, T/C [1] of 106%, a viability, T/C [2] of 102% and a viability, T/C [3] of 125%. For the same compound, the viability, T/C [4] was 108%, the viability, T/C [5] was 126% and the viability, T/C [6] was 80.9%. For the same compound, the viability, T/C [7] was 122%, the viability, T/C [8] was 110% and the viability, T/C [9] was 98.9%. It also gave a viability, T/C [10] of 100%, a viability, T/C [11] of 100% and a viability, T/C [12] of 89.9%. It also gave a viability, T/C [13] of 109%, a viability, T/C [14] of 110% and a viability, T/C [15] of 87.1%. It also gave a viability, T/C [16] of 122%, a viability, T/C [17] of 105% and a viability, T/C [18] of 99.8%. The viability, T/C [19] was 114%, the viability, T/C [20] was 98.1% and the viability, T/C [21] was 103%. It also gave a viability, T/C [22] of 106%, a viability, T/C [23] of 119% and a viability, T/C [24] of 103%. It also gave a viability, T/C [25] of 82.1%, a viability, T/C [26] of 108% and a viability, T/C [27] of 71.5%. The viability, T/C [28] was 75.9%, the viability, T/C [29] was 98.4% and the viability, T/C [30] was 48.8%. For the same compound, the viability, T/C [31] was 28.3%, the viability, T/C [32] was 32% and the viability, T/C [33] was 37.6%. For the same compound, the viability, T/C [34] was 40%, the viability, T/C [35] was 31% and the viability, T/C [36] was 27.2%.
